Assay type in all cases: cell-based
The subject of assay [1] is RS4;11 cells. Description: Cell proliferation assay, RS4;11 cells (MTS, 72 h). The following applies: Homo sapiens, RS4;11 cell proliferation. On the procedure:
MTS testing kit was purchased from Promega. The RPMI-1640, Fetal bovine serum and Penicillin-Streptomycin were purchased from Gibco. Dimethyl sulfoxide (DMSO) was purchased from Sigma.
To investigate whether a compound is able to inhibit the activity of Bcl-2 in cells, a mechanism-based assay using RS4;11 (ATCC® CRL-1873™) cell was developed. In this assay, inhibition of Bcl-2 was detected by the inhibition of RS4;11 cells proliferation. RS4;11 cells were cultured in culture flasks to 40-80% confluence in RPMI-1640 plus 10% fetal bovine serum. Cells were collected and plated onto 96-well plates at desired cell density (30000 cells/well). Plates were incubated overnight at 37° C., with 5% CO2 to adhere. Compounds were added to the plates, and the final compound concentrations were 10000, 3333, 1111, […], 41, 14, 4.6 and 1.5 nM. Plates plated with RS4;11 cells were placed at 37° C., with 5% CO2 for 72 h. 20 μl MTS/100 μl medium mixture solution were added to each well and incubate the plates for exactly 2 hours. The reaction was stopped by adding 25 μl 10% SDS per well. Measure absorbance at 490 nm and 650 nm (reference wavelength). IC50 was calculated using GraphPad Prism 5.0.

Assay [2] has as its system Toledo cells. The experiment in a line: Cell proliferation assay, Toledo cells (MTS, 72 h). To be noted: Toledo cells, MTS, read-out: Toledo IC50. In outline:
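IC50 was derived from 490 nm absorbance after a 2 h MTS step. Before that, compounds at 1.5–10000 nM final (nine points) acted on Toledo cells for 72 h at 37 °C, 5% CO2. Cells were seeded at 30000/well in 10% FBS RPMI-1640 and rested 4 h before dosing.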

In assay [3] the test system is RS4;11-BCL-2 F104L cells. Description: Cell proliferation assay, engineered RS4;11 cells stably overexpressing BCL-2 F104L (MTS, 168 h). To be noted: read-out: RS4, 11 BCL2-F104L. In outline:
(§1)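 Proliferation read-out: MTS for exactly 2 h, then absorbance at 490 nm, with IC50 derived from the fit. Before this, engineered RS4;11 lines (BCL-2 G101V, F104L; 5000 cells/well) were exposed 168 h at 37 °C to serially diluted compound, final 1.4–10000 nM.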

In assay [4] the test system is RS4;11-BCL-2 G101V cells. Description: Cell proliferation assay, engineered RS4;11 cells stably overexpressing BCL-2 G101V (MTS, 168 h). To be noted: read-out: RS4, 11 BCL2- G101V. In outline:
as §1

Read-outs that look alike come from different tables or passages of the source. Bounds are passed on as bounds.

In the case of `O=C(NS(=O)(=O)c1cnc(NCC2CCSCC2)c([N+](=O)[O-])c1)c1ccc(N2CCC3(CC2)CC(N2CCOC[C@H]2c2ccccc2C2CC2)C3)cc1Oc1cnc2[nH]ccc2c1` (single isomer, unassigned) [Example A-98, (R or S)-2-((1H-pyrrolo[2,3-b]pyridin-5-yl)oxy)-4-(2-(3-(2-cyclopropyl-phenyl)morpholino)-7-azaspiro[3.5]nonan-7-yl)-N-((5-nitro-6-(((tetra-hydro-2H-thiopyran-4-yl)methyl)amino)pyridin-3-yl)sulfonyl) benzamide], in assay [1], the IC50 was no more than 1 nM.
Compound `CCc1ccccc1[C@@H]1CCCN1C1CC2(CCN(c3ccc(C(=O)NS(=O)(=O)c4cnc(NCC5CCC(C)(O)CC5)c([N+](=O)[O-])c4)c(Oc4cnc5[nH]ccc5c4)c3)CC2)C1` (stereo partly drawn) [Example A-8a, (S)-2-((1H-pyrrolo[2,3-b]pyridin-5-yl)oxy)-4-(2-(2-(2-ethylphenyl)pyrrolidin-1-yl)-7-azaspiro[3.5]nonan-7-yl)-N-((6-(((4-hydroxy-4-methylcyclohexyl)methyl)amino)-5-nitropyridin-3-yl)sulfonyl) benzamide] had an IC50 in assay [1] of no more than 1 nM.
Same read-out and setting: the result for `O=C(NS(=O)(=O)c1cnc(NCC2C3COCC23)c([N+](=O)[O-])c1)c1ccc(N2CCC3(CC2)CC(N2CCC[C@H]2c2ccccc2C2CC2)C3)cc1Oc1cnc2[nH]ccc2c1` (stereo partly drawn) [Example A-30a, 2-((1H-pyrrolo[2,3-b]pyridin-5-yl)oxy)-N-((6-(((3-oxabicyclo[3.1.0]hexan-6-yl)methyl)amino)-5-nitro-pyridin-3-yl)sulfonyl)-4-(2-((5)-2-(2-cyclopropylphenyl)pyrrolidin-1-yl)-7-azaspiro[3.5]nonan-7-yl) benzamide] reads no more than 1 nM; that for `CC(C)c1ccccc1[C@@H]1CCCN1C1CC2(CCN(c3ccc(C(=O)NS(=O)(=O)c4cnc(NCC5C6COCC56)c([N+](=O)[O-])c4)c(Oc4cnc5[nH]ccc5c4)c3)CC2)C1` (stereo in doubt) [Example A-27a, 2-((1H-pyrrolo[2,3-b]pyridin-5-yl)oxy)-N-((6-(((3-oxabicyclo[3.1.0]hexan-6-yl)methyl)amino)-5-nitro-pyridin-3-yl)sulfonyl)-4-(2-((5)-2-(2-isopropylphenyl)pyrrolidin-1-yl)-7-azaspiro[3.5]nonan-7-yl) benzamide], no more than 1 nM.
`O=C(NS(=O)(=O)c1cnc(NCC2CCOCC2)c([N+](=O)[O-])c1)c1ccc(N2CCC3(CC2)CC(N2CCNC[C@H]2c2ccccc2C2CC2)C3)cc1Oc1cnc2[nH]ccc2c1` (single isomer, unassigned) [Example A-36a, (R or S)-2-((1H-pyrrolo[2,3-b]pyridin-5-yl)oxy)-4-(2-(2-(2-cyclopropyl-phenyl)piperazin-1-yl)-7-azaspiro [3.5]nonan-7-yl)-N-((5-nitro-6-(((tetrahydro-2H-pyran-4-yl)methyl)amino)pyridin-3-yl)sulfonyl) benzamide] gave an IC50 in assay [1] of no more than 1 nM.
In turn, `CS(C)(=O)=NC1CCC(CNc2ncc(S(=O)(=O)NC(=O)c3ccc(N4CCC5(CC4)CC(N4CCC[C@@H]4c4ccccc4C4CC4)C5)cc3Oc3cnc4[nH]ccc4c3)cc2[N+](=O)[O-])CC1` (single isomer, unassigned) [Example A-9b, (R or S)-2-((1H-pyrrolo[2,3-b]pyridin-5-yl)oxy)-4-(2-(2-(2-cyclopropyl-phenyl)pyrrolidin-1-yl)-7-azaspiro [3.5]nonan-7-yl)-N-((6-(((4-((dimethyl(oxo)-λ^6-sulfanylidene)amino)cyclohexyl)methyl)amino)-5-nitropyridin-3-yl)sulfonyl)benzamide] returned an IC50 in assay [1] of no more than 1 nM.
As for `COCCOc1nc2[nH]cc(F)c2cc1Oc1cc(N2CCC3(CC2)CN([C@H]2CCC[C@H]2c2ccccc2C(C)C)C3)ccc1C(=O)NS(=O)(=O)c1cnc(NC[C@H]2CC[C@](C)(O)CC2)c([N+](=O)[O-])c1` (single isomer, unassigned) [Example A-154, 2-((3-fluoro-6-(2-methoxyethoxy)-1H-pyrrolo[2,3-b]pyridin-5-yl)oxy)-N-((6-(((1r,4r)-4-hydroxy-4-methyl-cyclohexyl)methyl)amino)-5-nitro-pyridin-3-yl)sulfonyl)-4-(2-((1S,2S or 1R,2R)-2-(2-isopropylphenyyl)cyclo-pentyl)-2,7-diazaspiro[3.5]nonan-7-yl) benzamide], the IC50 in assay [2] (Homo sapiens) came to 1 nM; in assay [3] (Homo sapiens), 19 nM; in assay [4] (Homo sapiens, RS4-11, 168 h) it was 57 nM.
Regarding `COCCOc1nc2[nH]ccc2cc1Oc1cc(N2CCC3(CC2)CC(N2CCC[C@H]2c2ccccc2C(C)C)C3)ccc1C(=O)NS(=O)(=O)c1cc2c(c([N+](=O)[O-])c1)N[C@@H]([C@H]1CC[C@](C)(O)CC1)CO2` (single isomer, unassigned) [Example D-17, N-(((S)-3-((1r,4S)-4-hydroxy-4-methylcyclohexyl)-5-nitro-3,4-dihydro-2H-benzo[b][1,4]oxazin-7-yl)sulfonyl)-4-(2-((R or S)-2-(2-isopropylphenyl)pyrrolidin-1-yl)-7-azaspiro[3.5]nonan-7-yl)-2-((6-(2-methoxyethoxy)-1H-pyrrolo[2,3-b]pyridin-5-yl)oxy) benzamide], the IC50 in assay [2] (Homo sapiens) was 1 nM; in assay [3] (Homo sapiens), 22 nM; in assay [4] (Homo sapiens, RS4-11, 168 h) it was 1 nM.
In the case of `COCCOc1nc2[nH]cc(F)c2cc1Oc1cc(N2CCC3(CC2)CN([C@H]2CCC[C@H]2c2ccccc2C(C)C)C3)ccc1C(=O)NS(=O)(=O)c1cc2c(c([N+](=O)[O-])c1)N[C@@H]([C@H]1CC[C@](C)(O)CC1)CO2` (single isomer, unassigned) [Example D-95, 2-((3-fluoro-6-(2-methoxyethoxy)-1H-pyrrolo[2,3-b]pyridin-5-yl)oxy)-N-(((S)-3-((1r,4S)-4-hydroxy-4-methylcyclohexyl)-5-nitro-3,4-dihydro-2H-benzo[b][1,4]oxazin-7-yl)sulfonyl)-4-(2-((1S,2S or 1R,2R)-2-(2-isopropylphenyl)cyclopentyl)-2,7-diazaspiro[3.5]nonan-7-yl)benzamide], the IC50 in assay [2] (Homo sapiens) turned out to be 1 nM; in assay [3] (Homo sapiens) it was 8 nM; in assay [4] (Homo sapiens, RS4-11, 168 h), 3 nM.
With `CC(C)c1ccccc1[C@@H]1CCC[C@@H]1N1CC2(CCN(c3ccc(C(=O)NS(=O)(=O)c4cnc(NC[C@H]5CC[C@](C)(O)CC5)c([N+](=O)[O-])c4)c(Oc4cnc5[nH]cc(F)c5c4)c3)CC2)C1` (single isomer, unassigned) [Example A-149, 2-((3-fluoro-1H-pyrrolo[2,3-b]pyridin-5-yl)oxy)-N-((6-((((1r,4r)-4-hydroxy-4-methylcyclohexyl)methyl)amino)-5-nitropyridin-3-yl)sulfonyl)-4-(2-((1S,2S or 1R,2R)-2-(2-isopropylphenyl)cyclo-petyl)-2,7-diazaspiro[3.5]nonan-7-yl) benzamide], the IC50 in assay [2] (Homo sapiens) came to 1 nM; in assay [3] (Homo sapiens) it was 1 nM; in assay [4] (Homo sapiens, RS4-11, 168 h), 1 nM.
On to “2-((3-fluoro-6-methoxy-1H-pyrrolo [2,3-b]pyridin-5-yl)oxy)-N-(((S)- 3-((1r,4S)-4-hydroxy-4- methylcyclohexyl)- 5-nitro-3,4-dihydro- 2H-benzo[b][1,4]oxazin-7-yl) sulfonyl)-4-(2-((1S,2S or 1R,2R)- 2-(2-isopropylphenyl) cyclopentyl)-2,7-diazaspiro[3.5] nonan-7-yl)benzamide [Example D-102]”, for which the IC50 was 1 nM in assay [2], 1 nM in assay [3] and 16 nM in assay [4].
Turning to `CCOc1nc2[nH]cc(F)c2cc1Oc1cc(N2CCC3(CC2)CC(N2CCC[C@H]2c2ccccc2C(C)C)C3)ccc1C(=O)NS(=O)(=O)c1cc2c(c([N+](=O)[O-])c1)N[C@@H]([C@H]1CC[C@](C)(O)CC1)CO2` (single isomer, unassigned) [Example D-85, 2-((6-ethoxy-3-fluoro-1H-pyrrolo [2,3-b]pyridin-5-yl)oxy)-N-(((S)-3-((1r,4S)-4-hydroxy-4-methylcyclohexyl)-5-nitro-3,4-dihydro-2H-benzo[b][1,4]oxazin-7-yl)sulfonyl)-4-(2-((R or S)-2-(2-isopropylphenyl)pyrrolidin-1-yl)-7-azaspiro[3.5]nonan-7-yl)benzamide], the IC50 in assay [2] (Homo sapiens) turned out to be 1 nM; in assay [3] (Homo sapiens), 5 nM; in assay [4] (Homo sapiens, RS4-11, 168 h), 28 nM.

The values are drawn from US20230159527A1, “COMPOUNDS AS BCL-2 INHIBITORS” (Fochon Pharmaceuticals, Ltd., priority 2020, published 2023).
